Like-named read-outs stand apart in the source and are kept apart here.
Columns and labels:
[1] = test system: 7 cancer cell lines; test: Therapeutic index over a panel of cancer cell lines; assay type: cell-based; conditions: average over the cancer cell lines of Table VII
Protocol: (§1) The compound toxicity was determined as follow:
(§2) Therapeutic Index=Safety/Potency=IC50 stimulated PBMC/IC50 cancer cell

[2] = test system: HT29; test: MTT colorimetric assay on epithelial intestinal cancer cells; assay type: cell-based; conditions: human, 72 h
Protocol: The experiment was performed to test and define anticancer activity in vitro of Cortexolone 17α-benzoate and cortexolone 17α-valerate, 21-propionate on cell lines representatives of epithelial intestinal tumours, namely HT29. The experiment method consisted in: • 1. Monolayer HT-29 cells were plated in: 96-wells plates at the density of 2×10^4 cells/mL. The cells plated were kept at 37° C. in 5% CO2 and left to attach for 24 h. • 2. […] After 72 h of treatment, the MTT colorimetric assay was performed.

[3] = test system: PC3; test: ATP-dependent cell viability assay (Cell Titer Glo), Example 12; conditions: for IC50: Homo sapiens; for Therapeutic Index = IC50 resting PBMC/IC50 cancer cell / Therapeutic Index = IC50 stimulated PBMC/IC50 cancer cell: human
From the text: (§3) Data shown in Table I were fitted through sigmoidal dose response curves and analyzed using Prizm statistical.

[4] = test system: LNCaP; test: as above; conditions: for IC50: Homo sapiens, LNCaP; for Therapeutic Index = IC50 resting PBMC/IC50 cancer cell / Therapeutic Index = IC50 stimulated PBMC/IC50 cancer cell: human, 3 days
From the text: as §3

[5] = test system: Panc1; test: as above; conditions: for Therapeutic Index = IC50 resting PBMC/IC50 cancer cell / Therapeutic Index = IC50 stimulated PBMC/IC50 cancer cell: human, 3 days; for IC50: Homo sapiens
From the text: as §3

[6] = test system: MiaPaca2; test: as above; conditions: for Therapeutic Index = IC50 resting PBMC/IC50 cancer cell / Therapeutic Index = IC50 stimulated PBMC/IC50 cancer cell: human, 3 days; for IC50: Homo sapiens
From the text: as §3

[7] = test system: stimulated PBMC; test: IC50 on stimulated (actively dividing) PBMC; assay type: cell-based, human; conditions: PBMC Stim; Table IV
[8] = test system: MCF7; test: In vitro proliferation / cytotoxic assay on breast cancer cells (Examples 14, 25); conditions: for Therapeutic Index = IC50 resting PBMC/IC50 cancer cell / Therapeutic Index = IC50 stimulated PBMC/IC50 cancer cell: human, 3 days
Protocol: as §3
For the cytotoxic assay, cells were seeded in 96-well flat bottom culture plates in media containing charcoal stripped serum. After 24 hours, test compounds were added to the cells. DMSO was used as the vehicle negative control and RU486 as the positive control. After 72 hour incubation, cells were harvested and lysed to determine cell viability using the Cell Titer Glow assay.

[9] = test system: stimulated PBMC; test: IC50 on stimulated (actively dividing) PBMC; assay type: cell-based, human; conditions: Homo sapiens, PBMC, PBMC STIMULATED; Table IV; read-out: In vitro proliferation IC50
Protocol: as §1, §2

[10] = PC-3, 72 h, PC3, Tables I and II, titrated 3 uM to 200 uM, 3 days
[11] = PC-3, read-out: In vitro proliferation IC50, PC3, Table IV
[12] = read-out: In vitro proliferation IC50

| SMILES | Therapeutic Index = IC50 stimulated PBMC/IC50 cancer cell, AVERAGE [1] | IC50 [3, 10] [µM] | IC50 [3, 11] [µM] | Therapeutic Index = IC50 resting PBMC/IC50 cancer cell ([3]; 3 days) | Therapeutic Index = IC50 stimulated PBMC/IC50 cancer cell ([3]; 3 days) | IC50 ([4]; 72 h) [µM] | IC50 [4, 12] [µM] | Therapeutic Index = IC50 resting PBMC/IC50 cancer cell [4] | Therapeutic Index = IC50 stimulated PBMC/IC50 cancer cell [4] | Therapeutic Index = IC50 resting PBMC/IC50 cancer cell [5] | Therapeutic Index = IC50 stimulated PBMC/IC50 cancer cell [5] | Therapeutic Index = IC50 resting PBMC/IC50 cancer cell [6] | Therapeutic Index = IC50 stimulated PBMC/IC50 cancer cell [6] | Therapeutic Index = IC50 resting PBMC/IC50 cancer cell [7] | Therapeutic Index = IC50 resting PBMC/IC50 cancer cell [8] | Therapeutic Index = IC50 stimulated PBMC/IC50 cancer cell [8] | further results |
| --- | --- | --- | --- | --- | --- | --- | --- | --- | --- | --- | --- | --- | --- | --- | --- | --- | --- |
| CCCC(=O)OC1(C(=O)CO)CCC2C3CCC4=CC(=O)CC[C@]4(C)C3=CC[C@@]21C (single isomer, unassigned) [CB-03-04] | 4 | 135 | 140 | 3 | 3 | 46 | 46 | 8 | 8 | 1 | 1 | 2 | 2 | 1 | 4 | 4 | Therapeutic Index = IC50 resting PBMC/IC50 cancer cell [2]: 7; Therapeutic Index = IC50 stimulated PBMC/IC50 cancer cell [2]: 7 |
| CCCC(=O)OCC(=O)[C@@]1(OC(=O)CCC)CCC2C3CCC4=CC(=O)CC[C@]4(C)C3CC[C@@]21C (stereo partly shown) [CB-03-03] | 4 | 53 | 53 | 3 | 3 | 16 | 16 | 9 | 9 | 2 | 2 | 5 | 5 | 1 | 4 | 4 | IC50 [9]: 140 µM; IC50 ([5]; PANC-1, 72 h): 70 µM; IC50 ([5]; PANC-1, read-out: In vitro proliferation IC50): 70 µM; IC50 ([6]; MIA PaCa-2, 72 h): 30 µM; IC50 ([6]; MIA PaCa-2, read-out: In vitro proliferation IC50): 30 µM; IC50 ([8]; Homo sapiens, MCF7, read-out: In vitro proliferation IC50): 32 µM |
